Data reported in PMC5290327, “SC83288 is a clinical development candidate for the treatment of severe malaria” (Nature Communications, 2017).

Tests used:
Test in all cases: KINOMEscan
Assay type in all cases: binding
Conditions in all cases: read-out: Remaining enzyme activity
ROS1 = biological target: T1, ROS1 (Homo sapiens, UniProt P08922)
T1 construct: purchased Ambit (DiscoverX) KINOMEscan; Cerep
Procedure, shortened: (§1)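 qPCR of a DNA tag reports how much kinase stays bound to ligand-coated beads in the presence of 10 μM SC81458, diluted from a DMSO stock. Kinase sources were T7 phage lysates from E. coli or HEK-293-expressed protein tagged with DNA.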

GSK3b = biological target: T2, GSK3b (Homo sapiens, UniProt P49841)
T2 construct: purchased Ambit (DiscoverX) KINOMEscan; Cerep
Procedure, shortened: as §1

LATS2 = biological target: T3, LATS2 (Homo sapiens, UniProt Q9NRM7)
T3 construct: purchased Ambit (DiscoverX) KINOMEscan; Cerep
Procedure, shortened: as §1

HUNK = biological target: T4, HUNK (Homo sapiens, UniProt P57058)
T4 construct: purchased Ambit (DiscoverX) KINOMEscan; Cerep
Procedure, shortened: as §1

MLCK = biological target: T5, MLCK (Homo sapiens, UniProt Q32MK0)
T5 construct: purchased Ambit (DiscoverX) KINOMEscan; Cerep
Procedure, shortened: as §1

ARK5 = biological target: T6, ARK5 (Homo sapiens, UniProt O60285)
T6 construct: purchased Ambit (DiscoverX) KINOMEscan; Cerep
Procedure, shortened: as §1

ULK2 = biological target: T7, ULK2 (Homo sapiens, UniProt Q8IYT8)
T7 construct: purchased Ambit (DiscoverX) KINOMEscan; Cerep
Procedure, shortened: as §1

EPHA5 = biological target: T8, EPHA5 (Homo sapiens, UniProt P54756)
T8 construct: purchased Ambit (DiscoverX) KINOMEscan; Cerep
Procedure, shortened: as §1

NIM1 = biological target: T9, NIM1 (Homo sapiens, UniProt Q8IY84)
T9 construct: purchased Ambit (DiscoverX) KINOMEscan; Cerep
Procedure, shortened: as §1

p38-beta = biological target: T10, p38-beta (Homo sapiens, UniProt Q15759)
T10 construct: purchased Ambit (DiscoverX) KINOMEscan; Cerep
Procedure, shortened: as §1

STK16 = biological target: T11, STK16 (Homo sapiens, UniProt O75716)
T11 construct: purchased Ambit (DiscoverX) KINOMEscan; Cerep
Procedure, shortened: as §1

NEK5 = biological target: T12, NEK5 (Homo sapiens, UniProt Q6P3R8)
T12 construct: purchased Ambit (DiscoverX) KINOMEscan; Cerep
Procedure, shortened: as §1

CLK2 = biological target: T13, CLK2 (Homo sapiens, UniProt P49760)
T13 construct: purchased Ambit (DiscoverX) KINOMEscan; Cerep
Procedure, shortened: as §1

PIM3 = biological target: T14, PIM3 (Homo sapiens, UniProt Q86V86)
T14 construct: purchased Ambit (DiscoverX) KINOMEscan; Cerep
Procedure, shortened: as §1

SRPK3 = biological target: T15, SRPK3 (Homo sapiens, UniProt Q9UPE1)
T15 construct: purchased Ambit (DiscoverX) KINOMEscan; Cerep
Procedure, shortened: as §1

EGFR(L858R, T790M) = biological target: T16, EGFR(L858R, T790M) (Homo sapiens, UniProt P00533, L858R/T790M)
T16 construct: purchased Ambit (DiscoverX) KINOMEscan; Cerep
Procedure, shortened: as §1

EGFR(L747-T751del, Sins) = biological target: T17, EGFR(L747-T751del, Sins) (Homo sapiens, UniProt P00533, DEL747-750/T751S)
T17 construct: purchased Ambit (DiscoverX) KINOMEscan; Cerep
Procedure, shortened: as §1

FES = biological target: T18, FES (Homo sapiens, UniProt P07332)
T18 construct: purchased Ambit (DiscoverX) KINOMEscan; Cerep
Procedure, shortened: as §1

BMPR2 = biological target: T19, BMPR2 (Homo sapiens, UniProt Q13873)
T19 construct: purchased Ambit (DiscoverX) KINOMEscan; Cerep
Procedure, shortened: as §1

CSNK2a2 = biological target: T20, CSNK2a2 (Homo sapiens, UniProt P19784)
T20 construct: purchased Ambit (DiscoverX) KINOMEscan; Cerep
Procedure, shortened: as §1

LATS1 = biological target: T21, LATS1 (Homo sapiens, UniProt O95835)
T21 construct: purchased Ambit (DiscoverX) KINOMEscan; Cerep
Procedure, shortened: as §1

ABL2 = biological target: T22, ABL2 (Homo sapiens, UniProt P42684)
T22 construct: purchased Ambit (DiscoverX) KINOMEscan; Cerep
Procedure, shortened: as §1

MAPKAPK2 = biological target: T23, MAPKAPK2 (Homo sapiens, UniProt P49137)
T23 construct: purchased Ambit (DiscoverX) KINOMEscan; Cerep
Procedure, shortened: as §1

ALK = biological target: T24, ALK (Homo sapiens, UniProt Q9UM73)
T24 construct: purchased Ambit (DiscoverX) KINOMEscan; Cerep
Procedure, shortened: as §1

HPK1 = biological target: T25, HPK1 (Homo sapiens, UniProt Q92918)
T25 construct: purchased Ambit (DiscoverX) KINOMEscan; Cerep
Procedure, shortened: as §1

TAO1 = biological target: T26, TAO1 (Homo sapiens, UniProt Q9UL54)
T26 construct: purchased Ambit (DiscoverX) KINOMEscan; Cerep
Procedure, shortened: as §1

NEK9 = biological target: T27, NEK9 (Homo sapiens, UniProt Q8TD19)
T27 construct: purchased Ambit (DiscoverX) KINOMEscan; Cerep
Procedure, shortened: as §1

YSK1 = biological target: T28, YSK1 (Homo sapiens, UniProt O00506)
T28 construct: purchased Ambit (DiscoverX) KINOMEscan; Cerep
Procedure, shortened: as §1

TNK1 = biological target: T29, TNK1 (Homo sapiens, UniProt Q13470)
T29 construct: purchased Ambit (DiscoverX) KINOMEscan; Cerep
Procedure, shortened: as §1

PAK3 = biological target: T30, PAK3 (Homo sapiens, UniProt O75914)
T30 construct: purchased Ambit (DiscoverX) KINOMEscan; Cerep
Procedure, shortened: as §1

CAMK2d = biological target: T31, CAMK2d (Homo sapiens, UniProt Q13557)
T31 construct: purchased Ambit (DiscoverX) KINOMEscan; Cerep
Procedure, shortened: as §1

CDK3 = biological target: T32, CDK3 (Homo sapiens, UniProt Q00526)
T32 construct: purchased Ambit (DiscoverX) KINOMEscan; Cerep
Procedure, shortened: as §1

AMPK-alpha1 = biological target: T33, AMPK-alpha1 (Homo sapiens, UniProt Q13131)
T33 construct: purchased Ambit (DiscoverX) KINOMEscan; Cerep
Procedure, shortened: as §1

AURKA = biological target: T34, AURKA (Homo sapiens, UniProt O14965)
T34 construct: purchased Ambit (DiscoverX) KINOMEscan; Cerep
Procedure, shortened: as §1

T19 sequence (Q13873 27-1038): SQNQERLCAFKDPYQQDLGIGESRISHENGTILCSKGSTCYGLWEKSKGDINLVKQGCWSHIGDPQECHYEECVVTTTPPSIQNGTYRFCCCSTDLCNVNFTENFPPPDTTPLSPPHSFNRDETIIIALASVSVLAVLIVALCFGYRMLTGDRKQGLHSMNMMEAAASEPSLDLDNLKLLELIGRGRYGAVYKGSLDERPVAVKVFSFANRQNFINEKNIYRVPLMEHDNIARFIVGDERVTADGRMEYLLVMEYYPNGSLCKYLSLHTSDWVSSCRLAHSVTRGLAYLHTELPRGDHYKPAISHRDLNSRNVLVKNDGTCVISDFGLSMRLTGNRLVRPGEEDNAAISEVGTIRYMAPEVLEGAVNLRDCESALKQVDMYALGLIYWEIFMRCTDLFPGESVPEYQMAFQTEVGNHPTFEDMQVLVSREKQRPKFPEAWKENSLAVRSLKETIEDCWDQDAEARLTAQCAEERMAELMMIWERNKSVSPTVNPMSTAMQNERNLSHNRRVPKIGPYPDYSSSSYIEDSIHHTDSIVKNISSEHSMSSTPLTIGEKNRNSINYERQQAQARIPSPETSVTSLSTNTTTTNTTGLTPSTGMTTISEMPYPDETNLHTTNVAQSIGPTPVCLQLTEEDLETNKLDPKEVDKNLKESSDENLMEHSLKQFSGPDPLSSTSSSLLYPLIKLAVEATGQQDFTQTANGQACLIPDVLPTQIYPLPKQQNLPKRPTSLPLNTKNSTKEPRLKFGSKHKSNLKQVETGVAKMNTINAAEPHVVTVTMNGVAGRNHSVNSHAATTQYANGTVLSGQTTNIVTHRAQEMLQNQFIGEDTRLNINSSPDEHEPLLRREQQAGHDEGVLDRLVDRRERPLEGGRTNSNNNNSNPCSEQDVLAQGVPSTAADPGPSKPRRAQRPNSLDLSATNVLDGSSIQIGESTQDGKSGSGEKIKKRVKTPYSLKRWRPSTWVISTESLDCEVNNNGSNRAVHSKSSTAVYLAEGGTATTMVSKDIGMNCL
T17 sequence (P00533 with tags, fused parts or gaps DEL747-750/T751S limits assumed): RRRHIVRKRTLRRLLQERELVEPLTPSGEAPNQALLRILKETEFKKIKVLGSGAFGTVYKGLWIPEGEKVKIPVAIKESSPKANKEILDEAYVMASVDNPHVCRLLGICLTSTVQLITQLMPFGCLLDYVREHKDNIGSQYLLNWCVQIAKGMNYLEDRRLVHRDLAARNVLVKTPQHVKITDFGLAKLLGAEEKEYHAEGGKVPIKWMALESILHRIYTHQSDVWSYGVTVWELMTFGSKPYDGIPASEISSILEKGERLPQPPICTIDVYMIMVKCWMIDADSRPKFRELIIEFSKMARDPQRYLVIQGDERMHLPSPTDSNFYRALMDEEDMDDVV
T5 sequence (Q32MK0 whole entry): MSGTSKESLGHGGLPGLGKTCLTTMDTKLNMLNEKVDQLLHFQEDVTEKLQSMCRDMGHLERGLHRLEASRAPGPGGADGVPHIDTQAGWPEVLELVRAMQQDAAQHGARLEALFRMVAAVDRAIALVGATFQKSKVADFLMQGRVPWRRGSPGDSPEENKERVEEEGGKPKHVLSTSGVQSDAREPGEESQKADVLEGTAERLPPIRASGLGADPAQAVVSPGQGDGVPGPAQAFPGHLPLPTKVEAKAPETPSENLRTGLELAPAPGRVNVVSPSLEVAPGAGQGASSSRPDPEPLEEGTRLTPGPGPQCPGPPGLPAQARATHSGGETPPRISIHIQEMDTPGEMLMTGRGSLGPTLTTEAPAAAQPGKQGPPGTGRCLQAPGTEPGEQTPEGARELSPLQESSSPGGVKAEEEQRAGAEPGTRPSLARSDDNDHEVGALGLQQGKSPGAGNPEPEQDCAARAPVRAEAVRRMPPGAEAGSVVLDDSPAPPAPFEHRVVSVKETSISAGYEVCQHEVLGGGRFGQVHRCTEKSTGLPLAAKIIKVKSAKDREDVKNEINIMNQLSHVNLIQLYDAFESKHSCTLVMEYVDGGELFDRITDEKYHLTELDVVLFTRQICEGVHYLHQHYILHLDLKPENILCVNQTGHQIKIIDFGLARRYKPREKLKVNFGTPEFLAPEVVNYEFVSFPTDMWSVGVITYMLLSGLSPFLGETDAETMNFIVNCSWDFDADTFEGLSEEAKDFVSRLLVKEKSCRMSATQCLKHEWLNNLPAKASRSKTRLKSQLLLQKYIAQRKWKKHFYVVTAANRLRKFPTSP
T30 sequence (O75914 whole entry): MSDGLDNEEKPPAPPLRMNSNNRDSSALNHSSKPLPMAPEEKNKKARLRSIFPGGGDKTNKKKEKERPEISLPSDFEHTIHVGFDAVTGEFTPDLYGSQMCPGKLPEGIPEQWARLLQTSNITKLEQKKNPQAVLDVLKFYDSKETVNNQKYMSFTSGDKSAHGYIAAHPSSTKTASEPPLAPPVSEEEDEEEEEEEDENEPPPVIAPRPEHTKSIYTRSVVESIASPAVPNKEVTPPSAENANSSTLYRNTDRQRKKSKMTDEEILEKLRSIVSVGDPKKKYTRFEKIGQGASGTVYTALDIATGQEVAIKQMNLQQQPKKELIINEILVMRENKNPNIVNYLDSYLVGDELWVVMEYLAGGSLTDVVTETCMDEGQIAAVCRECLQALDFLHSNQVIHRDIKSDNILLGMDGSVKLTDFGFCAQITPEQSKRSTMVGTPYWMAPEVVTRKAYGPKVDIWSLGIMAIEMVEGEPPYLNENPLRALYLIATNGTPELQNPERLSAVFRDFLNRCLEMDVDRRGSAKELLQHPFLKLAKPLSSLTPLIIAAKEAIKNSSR
T15 sequence (Q9UPE1 whole entry): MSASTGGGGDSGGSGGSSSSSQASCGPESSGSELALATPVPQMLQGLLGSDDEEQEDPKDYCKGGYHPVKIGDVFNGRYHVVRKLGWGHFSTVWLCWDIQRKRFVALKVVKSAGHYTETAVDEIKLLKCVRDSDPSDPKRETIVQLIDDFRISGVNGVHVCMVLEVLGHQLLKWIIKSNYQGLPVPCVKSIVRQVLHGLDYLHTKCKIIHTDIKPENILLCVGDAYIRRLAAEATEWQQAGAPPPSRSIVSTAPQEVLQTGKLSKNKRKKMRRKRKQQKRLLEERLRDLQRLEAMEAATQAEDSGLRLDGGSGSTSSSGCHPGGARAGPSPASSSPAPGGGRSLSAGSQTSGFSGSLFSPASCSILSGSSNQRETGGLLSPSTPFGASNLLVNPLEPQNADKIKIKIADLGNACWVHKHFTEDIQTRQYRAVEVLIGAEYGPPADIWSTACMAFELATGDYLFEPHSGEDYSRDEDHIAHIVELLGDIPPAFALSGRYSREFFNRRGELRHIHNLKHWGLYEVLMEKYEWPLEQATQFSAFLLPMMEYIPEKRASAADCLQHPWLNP
T22 sequence (P42684 whole entry): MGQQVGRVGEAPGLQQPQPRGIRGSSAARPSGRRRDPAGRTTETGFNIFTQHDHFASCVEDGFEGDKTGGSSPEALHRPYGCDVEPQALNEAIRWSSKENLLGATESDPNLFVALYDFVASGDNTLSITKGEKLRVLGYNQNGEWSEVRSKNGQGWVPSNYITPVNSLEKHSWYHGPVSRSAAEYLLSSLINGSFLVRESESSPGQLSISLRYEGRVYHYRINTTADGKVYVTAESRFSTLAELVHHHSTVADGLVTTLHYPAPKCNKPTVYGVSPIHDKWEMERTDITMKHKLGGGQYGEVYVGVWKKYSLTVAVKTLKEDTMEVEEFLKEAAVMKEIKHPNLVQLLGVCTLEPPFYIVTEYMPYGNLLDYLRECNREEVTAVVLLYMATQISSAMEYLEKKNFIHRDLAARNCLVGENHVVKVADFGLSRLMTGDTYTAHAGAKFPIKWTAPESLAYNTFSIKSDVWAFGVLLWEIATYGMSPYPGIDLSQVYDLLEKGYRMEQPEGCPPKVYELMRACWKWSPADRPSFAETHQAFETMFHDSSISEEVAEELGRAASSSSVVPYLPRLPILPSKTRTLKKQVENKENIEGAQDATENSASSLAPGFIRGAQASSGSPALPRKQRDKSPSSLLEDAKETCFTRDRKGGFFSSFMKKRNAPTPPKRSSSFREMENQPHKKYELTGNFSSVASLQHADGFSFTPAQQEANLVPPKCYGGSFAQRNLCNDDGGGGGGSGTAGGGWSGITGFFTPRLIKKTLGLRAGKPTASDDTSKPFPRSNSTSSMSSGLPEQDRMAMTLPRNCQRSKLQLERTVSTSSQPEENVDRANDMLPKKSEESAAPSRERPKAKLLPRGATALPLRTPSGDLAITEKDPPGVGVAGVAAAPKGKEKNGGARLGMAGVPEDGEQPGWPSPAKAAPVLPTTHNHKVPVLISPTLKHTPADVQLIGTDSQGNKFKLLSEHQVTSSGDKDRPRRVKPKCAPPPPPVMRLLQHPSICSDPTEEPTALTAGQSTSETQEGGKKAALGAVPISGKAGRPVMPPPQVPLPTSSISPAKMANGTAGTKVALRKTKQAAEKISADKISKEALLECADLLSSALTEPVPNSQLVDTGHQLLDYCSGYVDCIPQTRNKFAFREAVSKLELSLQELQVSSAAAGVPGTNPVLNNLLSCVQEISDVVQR
T33 sequence (Q13131 whole entry): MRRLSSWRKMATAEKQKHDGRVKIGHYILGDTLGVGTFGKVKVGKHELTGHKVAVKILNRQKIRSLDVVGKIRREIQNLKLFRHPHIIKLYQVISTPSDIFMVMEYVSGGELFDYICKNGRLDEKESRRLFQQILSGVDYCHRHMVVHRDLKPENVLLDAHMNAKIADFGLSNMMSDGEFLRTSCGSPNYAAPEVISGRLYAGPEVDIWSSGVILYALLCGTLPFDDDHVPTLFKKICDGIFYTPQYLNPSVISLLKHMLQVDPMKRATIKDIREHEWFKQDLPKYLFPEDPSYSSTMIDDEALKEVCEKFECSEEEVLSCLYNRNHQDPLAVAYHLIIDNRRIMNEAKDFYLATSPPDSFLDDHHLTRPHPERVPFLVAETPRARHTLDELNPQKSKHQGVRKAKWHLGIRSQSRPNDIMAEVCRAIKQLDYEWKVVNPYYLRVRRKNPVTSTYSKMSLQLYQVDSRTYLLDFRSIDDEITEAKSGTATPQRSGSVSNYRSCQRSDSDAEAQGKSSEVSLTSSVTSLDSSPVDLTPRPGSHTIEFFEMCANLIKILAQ

CCCCN1CCN(C(=N)c2cccc(NC(=O)Nc3ccc(S(=O)(=O)NCc4ccc(S(N)(=O)=O)cc4)cc3)c2)CC1 [SC81458, 4-(3-(3-((4-butylpiperazin-1-yl)(imino)methyl)phenyl)ureido)-N-(4-sulfamoylbenzyl) benzenesulfonamide]
remaining binding at 10 µM (ROS1): 100%
remaining binding at 10 µM (GSK3b): 100%
remaining binding at 10 µM (LATS2): 100%
remaining binding at 10 µM (HUNK): 100%
remaining binding at 10 µM (MLCK): 100%
remaining binding at 10 µM (ARK5): 92%
remaining binding at 10 µM (ULK2): 100%
remaining binding at 10 µM (EPHA5): 100%
remaining binding at 10 µM (NIM1): 100%
remaining binding at 10 µM (p38-beta): 100%
remaining binding at 10 µM (STK16): 100%
remaining binding at 10 µM (NEK5): 100%
remaining binding at 10 µM (CLK2): 100%
remaining binding at 10 µM (PIM3): 100%
remaining binding at 10 µM (SRPK3): 83%
remaining binding at 10 µM (EGFR(L858R, T790M)): 100%
remaining binding at 10 µM (EGFR(L747-T751del, Sins)): 69%
remaining binding at 10 µM (FES): 100%
remaining binding at 10 µM (BMPR2): 100%
remaining binding at 10 µM (CSNK2a2): 78%
remaining binding at 10 µM (LATS1): 82%
remaining binding at 10 µM (ABL2): 77%
remaining binding at 10 µM (MAPKAPK2): 71%
remaining binding at 10 µM (ALK): 100%
remaining binding at 10 µM (HPK1): 100%
remaining binding at 10 µM (TAO1): 100%
remaining binding at 10 µM (NEK9): 100%
remaining binding at 10 µM (YSK1): 76%
remaining binding at 10 µM (TNK1): 70%
remaining binding at 10 µM (PAK3): 93%
remaining binding at 10 µM (CAMK2d): 90%
remaining binding at 10 µM (CDK3): 100%
remaining binding at 10 µM (AMPK-alpha1): 100%
remaining binding at 10 µM (AURKA): 68%
